In paper PMC3997483, “Aminostyrylbenzofuran Directly Reduces Oligomeric Amyloid-β and Reverses Cognitive Deficits in Alzheimer Transgenic Mice” (PLoS ONE, 2014):
Like-named read-outs stand apart in the source and are kept apart here.

Key:
[1] = tested on: soluble Aβ oligomers; assay: Dot-blot immunoassay (A11/6E10) of soluble Aβ oligomers in hippocampus, prophylactic trial; format: in vivo, mouse; settings: hippocampus soluble fraction
Method: Mice subjected to behavior tests were sacrificed and levels of Aβ in their brains were analyzed. After removing olfactory lobe and cerebellum of brain, hippocampus and cerebral cortex were separated. The separated regions were Dounce-homogenized first in 10-fold mass of a lysis buffer (RIPA, 150 mM NaCl, 1% NP-40, 0.5% deoxycholic acid, 0.1% SDS and 50 mM tris, pH 8.0) or tris buffer (50 mM tris and pH 8.0) containing protease inhibitor cocktail (Pierce, USA) for prophylactic or therapeutic treatment groups, respectively. The homogenates were then centrifuged at 16,000 g for 20 min at 4°C. The supernatant (soluble Aβ fraction) was collected and stored at −70°C until analyzed. The resulting pellet was solubilized in 20-fold mass of cold guanidine solution (5 M guanidine HCl, 50 mM tris HCl and pH 8.0) at room temperature for 4 hr followed by dilution with cold Dulbecco's phosphate buffered saline (PBS) with 5% BSA and 0.03% tween-20. The diluent was centrifuged at 16,000 g for 20 min at 4°C to obtain the insoluble Aβ fraction. The tissue concentrations of Aβ40 and Aβ42 in the soluble and insoluble fraction were measured using Aβ-detecting sandwich enzyme-linked immunosorbent assay (ELISA) kit (BioSource, USA). The levels of soluble Aβ oligomers were measured by a dot-blot immunoassay with an anti-oligomer antibody and an anti-Aβ antibody on soluble fraction of hippocampus homogenates. The homogenate sample (3 µL) was spotted onto nitrocellulose membrane (Whatman, UK). After blocking with 5% BSA in tris-buffered saline (TBS) for 1 hr at room temperature, the membrane was incubated with rabbit anti-oligomer polyclonal antibody (A11; 1∶1,000; Millipore, USA) overnight at 4°C, followed by incubation with HRP-secondary anti-rabbit antibody (1∶5,000; Millipore, USA) for 1 hr at room temperature. Blots were developed using ECL reagents (PerkinElmer, USA). […] The density of dots was analyzed with Multi Gauge program (Fuji Film, Japan) and the data was normalized to the average density of the TG control group. […]

[2] = Plasma and brain pharmacokinetics (BBB penetration) after PO in mice; format: in vivo; settings: for AUC(0-t): read-out: AUC0–24h
Method: Pharmacokinetics profile of KMS88009 was obtained using ICR mice, SD rats, beagle dogs and cynomolgus monkeys. Animals were fasted overnight before KMS88009 administration. Mice were divided into 2 groups to receive KMS88009 as a single dose of 2.1 mg/kg intravenous (IV) bolus or 10 mg/kg orally (PO) by gavage. Additionally, KMS88009 was administered orally to estimate the BBB penetration in mice (10, 30 and 100 mg/kg). […] Dog received KMS88009 either as an IV bolus (1 mg/kg) via the great saphenous vein or by oral gavage (4 mg/kg). KMS88009 was administrated to monkeys as an IV bolus (1 mg/kg) via the femoral vein or by oral gavage (4 mg/kg). Vehicle for IV and PO administration was DMSO/tween-20/saline (3.3∶19.8∶[…]). […]. Brain samples were weighed and Daunce-homogenized in 10-fold volume of ice-chilled 4% bovine serum albumin (BSA) solution at room temperature. Plasma and brain homogenates were kept frozen at −70°C until analysis. The levels of KMS88009 were determined by the LC-MS/MS analysis. Pharmacokinetic parameters, time to the maximum concentration (Tmax), maximum concentration (Cmax), elimination half-life (T1/2), volume of distribution (Vd), clearance (Cl) and mean residual time (MRT), of KMS88009 were calculated based on plasma concentration-time data by a non-compartmental method using WinNonlin Version 5.2 (Pharsight, USA). Area under the curve from 0 to 24 hr (AUC0-24h) and area under the curve from 0 to infinity (AUCINF) were obtained by linear and log linear trapezoidal summations.

[3] = ICR, mouse, brain, mice PO 10 mg/kg
[4] = ICR, mouse, brain, mice PO 30 mg/kg
[5] = ICR, mouse, brain, mice PO 100 mg/kg
[6] = ICR, mouse, plasma, mice PO 10 mg/kg
[7] = ICR, mouse, plasma, mice PO 30 mg/kg
[8] = ICR, mouse, plasma, mice PO 100 mg/kg

Question: For `COc1ccc2cc(C=Cc3ccc(N(C)C)cc3)oc2c1` [KMS88009, 6-methoxy-2-(4-dimethylaminostyryl) benzofuran], which “reduction of soluble oligomeric Aβ vs vehicle-treated TG group” value (“reduction of soluble oligomeric Aβ” below) ([1]; 10 mg/kg/day) is on record?
Answer: 43.1%

Question: What about the “reduction of soluble oligomeric Aβ” value ([1]; 30 mg/kg/day) of the same compound?
Answer: 43.2%

Question: What about the “reduction of soluble oligomeric Aβ” value ([1]; 100 mg/kg/day) of the same compound?
Answer: 46.4%

Question: And the Kp ([2]; ICR, mouse, brain, mice, PO, read-out: Level (AUC0–24h) in the brain relative to plasma)?
Answer: > 12

Question: What about the Cmax [2, 3] of the same compound?
Answer: 6370 ng/g

Question: And the Tmax [2, 3]?
Answer: 2 h

Question: What about the Cmax [2, 4] of the same compound?
Answer: 17800 ng/g

Question: What about the Tmax [2, 4] of the same compound?
Answer: 4 h

Question: What about the Cmax [2, 5] of the same compound?
Answer: 23300 ng/g

Question: What about the Tmax [2, 5] of the same compound?
Answer: 10 h

Question: And the Cmax [2, 6]?
Answer: 744 ng/mL

Question: What about the Tmax [2, 6] of the same compound?
Answer: 1 h

Question: And the AUC(0-t) [2, 6]?
Answer: 4570 ng·h/mL

Question: What about the Cmax [2, 7] of the same compound?
Answer: 1640 ng/mL

Question: What about the Tmax [2, 7] of the same compound?
Answer: 1 h

Question: And the AUC(0-t) [2, 7]?
Answer: 13400 ng·h/mL

Question: And the Cmax [2, 8]?
Answer: 2710 ng/mL

Question: What about the Tmax [2, 8] of the same compound?
Answer: 2 h

Question: And the AUC(0-t) [2, 8]?
Answer: 30500 ng·h/mL

Question: And the “AUC0–24h” value ([2]; brain, mice PO 10 mg/kg)?
Answer: 55395.5 ng·h/g

Question: What about the “AUC0–24h” value ([2]; brain, mice PO 30 mg/kg) of the same compound?
Answer: 205268.3 ng·h/g

Question: And the “AUC0–24h” value ([2]; brain, mice PO 100 mg/kg)?
Answer: 367538.5 ng·h/g
